According to patent US6004983A, “N-substituted azaheterocyclic compounds” (Novo Nordisk A/S, priority 1996, dated 1999):

Test system: histamine induced oedema
Experiment: Histamine induced paw oedema (rat histamine paw oedema test)
Type: in vivo, rat (male Sprague-Dawley)
Details: at 1 mg/kg, intraperitoneally 15 minutes before the anaesthetics, histamine 50 microliter, 3 mg/ml in right hind paw, swelling 20 minutes after histamine
Method: Compounds of formula I may be used to treat all painful, hyperalgesic and/or inflammatory conditions in which C-fibres play a pathophysiological role by eliciting neurogenic pain or inflammation, i. e.:
I. Histamine induced paw oedema
The rat histamine paw oedema test was performed essentially as described by Amann et al. (Europ. J. Pharmacol. 279, 227-231, 1995). In brief 250-300 g male Sprague-Dawley rats were anaesthetized with pentobarbital sodium, and placed on a 32 degree(Celsius) heated table. Ten minutes later histamine (50 micoliter, 3 mg/ml) was injected in the right hind paw and 20 minutes hereafter the paw swelling was determined by water plethysmography (Ugo Basile). Test compounds were administered intraperitoneally at 15 minutes before the anaesthetics.

Q: Which “% oedema inhibition (inhibition of histamine induced oedema)” value does the source give for Cl.O=C(O)C1CCN(CC=C2c3ccccc3CSc3ccccc32)CC1 [Example 2, 1-(2-(6,11-Dihydrodibenzo[b,e]thiepin-11-ylidene)-1-ethyl)-4-piperidinecarboxylic acid hydrochloride] here?
A: Its value is 51%.

Q: For Cl.O=C(O)[C@H]1CCCCN1CC=C1c2ccccc2CCc2ccccc21 [Example 12, (R)-1-(2-(10,11-dihydro-5H-dibenzo[a,d]cyclohepten-5-ylidene)-1-ethyl)-2-piperidinecarboxylic acid hydrochloride], which “% oedema inhibition (inhibition of histamine induced oedema)” value is on record?
A: Its value is 49%.
